This test relates to MCH receptors. The test can be described thus: MCH receptor activity class (method not given).
Where [1] appears, read: class by percent of control at 10^-7 M or IC50.
Where [2] appears, read: MCH receptor, class by percent of control at 10^-7 M or IC50.
The mark [3] stands for this setting: class by percent of control at 10^−7 M or IC50.
The mark [4] stands for this setting: activity class per percent of control at 10^-7 M or IC50.
The mark [5] stands for this setting: activity class 1-3: percent of control at 10^-7 M or IC50.
Setting [6] is: class 1-3 by percent of control at 10^-7 M or IC50.

Drawing on patent US20050197350A1, “Novel quinoline, tetrahydroquinazoline, and pyrimidine derivatives and methods of treatment related to the use thereof” (TAISHO PHARMACEUTICAL CO., LTD., priority 2003, published 2005), this text covers class for 35 molecules.

Take `CN(C)c1cc(N[C@H]2CC[C@@H](NC(=O)c3scc(S(C)(=O)=O)c3Cl)CC2)nc2ccccc12` [compound 764]: the class under setting [1] is reported as 3 (Class 3 The value of percent of control at 10^−7 M was more than 60% or the value of IC50 was more than 200 nM.).
With `COc1cccc(C(=O)NC[C@H]2CC[C@@H](Nc3cc(N(C)C)c4ccccc4n3)CC2)c1` [compound 147, N-[(cis-4-{[4-(dimethylamino)quinolin-2-yl]amino}cyclohexyl)methyl]-3-methoxybenzamide], the class under setting [2] was 3 (Class 3 The value of percent of control at 10^−7 M was more than 60% or the value of IC50 was more than 200 nM.).
Regarding `Cc1cnc(N[C@H]2CC[C@@H](CNC(=O)c3cc(Cl)cc(Cl)c3)CC2)nc1N(C)C` [compound 2706, 3,5-dichloro-N-[(cis-4-{[4-(dimethylamino)-5-methylpyrimidin-2-yl]amino}cyclohexyl)methyl]benzamide], the class under setting [3] is listed as 1 (Class 1: The value of percent of control at 10^−7 M was less than 40% or the value of IC50 was less than 50 nM.).
In the case of `Cc1cc(C(=O)NC[C@H]2CC[C@@H](Nc3nc4c(c(N(C)C)n3)CCCC4)CC2)cc(C)c1OCc1ccccc1` [compound 1082], under setting [4], the class is 3 (Class 3 The value of percent of control at 10^−7 M was more than 60% or the value of IC50 was more than 200 nM.).
As to `COc1cc(OC)c(CNC[C@H]2CC[C@@H](Nc3nc4c(c(N(C)C)n3)CCCC4)CC2)cc1Br` [compound 1386], the class under setting [1] is recorded as 3 (Class 3 The value of percent of control at 10^−7 M was more than 60% or the value of IC50 was more than 200 nM.).
Same read-out and setting: to `Cc1c(C)c(C)c(CNC2CCC(Nc3nc4c(c(N(C)C)n3)CCCC4)CC2)c(C)c1C` (centres unmarked) [compound 1485] belongs 2 (Class 2: The value of percent of control at 10^−7 M was from 40% to 60% or the value of IC′50 was from 50 nM to 200 nM.); to `CN(C)c1nc(N[C@H]2CC[C@@H](NC(=O)NC(C)(C)C)CC2)nc2c1CCCC2` [compound 1810], 3 (Class 3 The value of percent of control at 10^−7 M was more than 60% or the value of IC50 was more than 200 nM.); to `CN(C)c1ccnc(N[C@H]2CC[C@@H](CNCc3ccc(O)cc3Cl)CC2)n1` [compound 1267], 3 (Class 3 The value of percent of control at 10^−7 M was more than 60% or the value of IC50 was more than 200 nM.).
For `COc1ccc(-c2ccccc2)cc1NC(=S)N[C@H]1CC[C@@H](Nc2nc3c(c(N(C)C)n2)CCCC3)CC1` [compound 1945], under setting [2], the class is given as 3 (Class 3 The value of percent of control at 10^−7 M was more than 60% or the value of IC50 was more than 200 nM.).
On to `CN(C)c1nc(N[C@H]2CC[C@@H](CNCc3ccccc3OC(F)(F)F)CC2)nc2c1CCCC2` [compound 1410], for which, under setting [1], the class is 3 (Class 3 The value of percent of control at 10^−7 M was more than 60% or the value of IC50 was more than 200 nM.).
Same read-out and setting: to `COc1ccc(NC(=O)N[C@H]2CC[C@@H](Nc3nc4c(c(N(C)C)n3)CCCC4)CC2)c(OC)c1` [compound 1711, N-(2,4-dimethoxyphenyl)-N′-(cis-4-{[4-(dimethylamino)-5,6,7,8-tetrahydroquinazolin-2-yl]amino}cyclohexyl)urea] belongs 2 (Class 2: The value of percent of control at 10^−7 M was from 40% to 60% or the value of IC′50 was from 50 nM to 200 nM.).
As to `Cc1cc(N(C)C)nc(N[C@H]2CC[C@@H](CNC(=O)c3ccccc3)CC2)n1` [compound 2751, N-[(cis-4-{[4-(dimethylamino)-6-methylpyrimidin-2-yl]amino}cyclohexyl)methyl]benzamide], under setting [3], the class is recorded as 3 (Class 3 The value of percent of control at 10^−7 M was more than 60% or the value of IC50 was more than 200 nM.).
Consider `CC(C)NC(=O)N[C@H]1CC[C@@H](Nc2nc3c(c(N(C)C)n2)CCCC3)CC1` [compound 1830], for which the class under setting [1] is 3 (Class 3 The value of percent of control at 10^−7 M was more than 60% or the value of IC50 was more than 200 nM.).
Regarding `CN(C)c1nc(N[C@H]2CC[C@@H](NC(=S)NC(c3ccccc3)c3ccccc3)CC2)nc2c1CCCC2` [compound 2025], the class under setting [2] was 3 (Class 3 The value of percent of control at 10^−7 M was more than 60% or the value of IC50 was more than 200 nM.).
With `COc1ccc2c(c1)C(CC(=O)N[C@H]1CC[C@@H](Nc3cc(N(C)C)c4ccccc4n3)CC1)CC2=O` (relative stereo) [compound 713], the class under setting [1] is reported as 3 (Class 3 The value of percent of control at 10^−7 M was more than 60% or the value of IC50 was more than 200 nM.).
Consider `CN(C)c1nc(N[C@H]2CC[C@@H](CNC(=O)Oc3cccc(C(F)(F)F)c3)CC2)nc2c1CCCC2` [compound 1602], for which, under setting [5], the class is 3 (Class 3 The value of percent of control at 10^−7 M was more than 60% or the value of IC50 was more than 200 nM.).
As for `CN(C)c1nc(N[C@H]2CC[C@@H](NC(=O)c3sc(Cl)c(Cl)c3Cl)CC2)nc2c1CCCC2` [compound 568], under setting [6], the class is 3 (Class 3 The value of percent of control at 10^−7 M was more than 60% or the value of IC50 was more than 200 nM.).
As for `CN(C)c1cc(N[C@H]2CC[C@@H](CNC(=O)c3c(F)ccc(F)c3Cl)CC2)nc2ccccc12` [compound 236], the class under setting [1] was 3 (Class 3 The value of percent of control at 10^−7 M was more than 60% or the value of IC50 was more than 200 nM.).
With `Cc1cccc(C(=O)NC[C@H]2CC[C@@H](Nc3nccc(N(C)C)n3)CC2)c1C` [compound 455], the class under setting [6] is 3 (Class 3 The value of percent of control at 10^−7 M was more than 60% or the value of IC50 was more than 200 nM.).
As for `CN(C)c1ccnc(N[C@H]2CC[C@@H](CNC(=O)c3ccccc3Cc3ccccc3)CC2)n1` [compound 936], the class under setting [1] is 2 (Class 2: The value of percent of control at 10^−7 M was from 40% to 60% or the value of IC′50 was from 50 nM to 200 nM.).
Same read-out and setting: the result for `Cc1sc(-c2ccccc2)nc1CC(=O)N[C@H]1CC[C@@H](Nc2nccc(N(C)C)n2)CC1` [compound 851, N-(cis-4-{[4-(dimethylamino)pyrimidin-2-yl]amino}cyclohexyl)-2-(5-methyl-2-phenyl-1,3-thiazol-4-yl)acetamide] reads 2 (Class 2: The value of percent of control at 10^−7 M was from 40% to 60% or the value of IC′50 was from 50 nM to 200 nM.).
Same read-out and setting: to `COc1cc(CC(=O)N[C@H]2CC[C@@H](Nc3cc(N(C)C)c4ccccc4n3)CC2)cc(OC)c1` [compound 702] belongs 3 (Class 3 The value of percent of control at 10^−7 M was more than 60% or the value of IC50 was more than 200 nM.); to `CC(=O)c1cccc(C(=O)N[C@H]2CC[C@@H](Nc3cc(N(C)C)c4ccccc4n3)CC2)c1` [compound 692], 3 (Class 3 The value of percent of control at 10^−7 M was more than 60% or the value of IC50 was more than 200 nM.).
For the molecule `CCOC(=O)[C@H](CC(C)C)NC(=O)NC[C@H]1CC[C@@H](Nc2nc3c(c(N(C)C)n2)CCCC3)CC1` (relative stereo) [compound 2455], the class (MCH receptor activity class 1-3 (percent of control at 10^-7 M or IC50)) is 2 (Class 2: The value of percent of control at 10^−7 M was from 40% to 60% or the value of IC′50 was from 50 nM to 200 nM.).
For `Cc1cc([N+](=O)[O-])ccc1NC(=O)N[C@H]1CC[C@@H](Nc2cc(N(C)C)c3ccccc3n2)CC1` [compound 2144], the class under setting [1] is reported as 3 (Class 3 The value of percent of control at 10^−7 M was more than 60% or the value of IC50 was more than 200 nM.).
On the same count and under the same terms, the result for `COc1cc(CN[C@H]2CC[C@@H](Nc3nc4c(c(N(C)C)n3)CCCC4)CC2)cc(OC)c1OC` [compound 1340] reads 3 (Class 3 The value of percent of control at 10^−7 M was more than 60% or the value of IC50 was more than 200 nM.).
As for `CN(C)c1cc(N[C@H]2CC[C@@H](CNCc3ccccc3SC(F)(F)F)CC2)nc2ccccc12` [compound 1165], the class under setting [1] is 3 (Class 3 The value of percent of control at 10^−7 M was more than 60% or the value of IC50 was more than 200 nM.).
Regarding `CN(C)c1nc(N[C@H]2CC[C@@H](NC(=S)Nc3ccc4c(c3)CCC4)CC2)nc2c1CCCC2` [compound 2054], the class under setting [2] is 3 (Class 3 The value of percent of control at 10^−7 M was more than 60% or the value of IC50 was more than 200 nM.).
On to `CN(C)c1nc(N[C@H]2CC[C@@H](NCc3c[nH]nc3-c3ccc(F)cc3)CC2)nc2c1CCCC2` [compound 1359], for which the class under setting [1] is given as 1 (Class 1: The value of percent of control at 10^−7 M was less than 40% or the value of IC50 was less than 50 nM.).
Take `COC(=O)N[C@H]1CC[C@@H](Nc2nccc(N(C)C)n2)CC1` [compound 1635]: the class under setting [5] is 3 (Class 3 The value of percent of control at 10^−7 M was more than 60% or the value of IC50 was more than 200 nM.).
In the case of `CN(C)c1cccc(C(=O)N[C@H]2CC[C@@H](Nc3nc4c(c(N(C)C)n3)CCCC4)CC2)c1` [compound 981, 3-(dimethylamino)-N-(cis-4-{[4-(dimethylamino)-5,6,7,8-tetrahydroquinazolin-2-yl]amino}cyclohexyl)benzamide], the class under setting [4] is 2 (Class 2: The value of percent of control at 10^−7 M was from 40% to 60% or the value of IC′50 was from 50 nM to 200 nM.).
Take `CN(C)c1ccnc(N[C@H]2CC[C@@H](NC(=O)c3cc(Cl)cc(Cl)c3)CC2)n1` [compound 248]: the class under setting [1] was 1 (Class 1: The value of percent of control at 10^−7 M was less than 40% or the value of IC50 was less than 50 nM.).
Still for that read-out and setting: to `COc1ccccc1NC(=S)N[C@H]1CC[C@@H](Nc2cc(N(C)C)c3ccccc3n2)CC1` [compound 2173] belongs 3 (Class 3 The value of percent of control at 10^−7 M was more than 60% or the value of IC50 was more than 200 nM.); to `Cc1cc(C(=O)N[C@H]2CC[C@@H](Nc3nccc(N(C)C)n3)CC2)c(C)o1` [compound 289, N-(cis-4-{[4-(dimethylamino)pyrimidin-2-yl]amino}cyclohexyl)-2,5-dimethyl-3-furamide], 2 (Class 2: The value of percent of control at 10^−7 M was from 40% to 60% or the value of IC′50 was from 50 nM to 200 nM.).
Consider `CN(C)c1ccnc(N[C@H]2CC[C@@H](CNC(=O)c3csc4ccccc34)CC2)n1` [compound 436], for which, under setting [6], the class is 3 (Class 3 The value of percent of control at 10^−7 M was more than 60% or the value of IC50 was more than 200 nM.).
